# Experiments:
# [1] = baboons (Acton et al., 1999a); cited from earlier work
# SERT [2] = conditions: literature; cited from earlier work
# [3] = Biodistribution of labeled radioligands in male Sprague-Dawley rats; type: in vivo; conditions: mean ± SD, n = 3
# Source text: Appropriately labeled compounds were studied in animals to assess their binding characteristics in the brain. Procedures for these biodistribution studies are as follows. […] The brain regions (cerebellum, hippocampus, striatum, frontal cortex, thalamus and hypothalamus), along with samples of blood and part of the tail, were removed, weighed, and counted in a Packard Cobra II gamma counter. The percent injected dose (% ID) of the decay- and tail-corrected activity in the brain regions and blood were calculated based upon C-11 standards prepared from the injection solution, and the % ID/g were calculated using the tissue weights.
# [4] = Experiment 5: plasma clearance of ^11C and ^18F labeled AFM, AFA, AFE in one baboon; type: in vivo; conditions: one adult male baboon, n = 1 to 4 scans
# Protocol: (§1) General scanning methods were as described in Huang et al. (2002). Arterial input function was measured and corrected for metabolites.
# SERT [5] = conditions: same baboon, one tissue compartment model
# Protocol: The animal was then injected with [^18F]AFM (2.60 mCi, 425 Ci/mmol, 1.51 μg) and scanned for 90 minutes. Analysis of the input function and brain uptake was performed as described in the previous section. […] Arterial activity was corrected for parent fraction to form the input function.
# Data were analyzed with a one tissue compartment model.
# [6] = Experiment 4: plasma analysis, [^11C]AFM and [^18F]AFM in the same baboon
# Protocol: The animal was then injected with [^18F]AFM (2.60 mCi, 425 Ci/mmol, 1.51 μg) and scanned for 90 minutes. […] Arterial activity was corrected for parent fraction to form the input function.
# SERT [7] = assay: Experiment 5: PET brain imaging of ^11C and ^18F labeled AFM, AFA, AFE in one baboon; type: in vivo; conditions: one adult male baboon, n = 1 to 4 scans, two-compartment model
# Protocol: as §1
# Activity distributed in the brain in accordance to the known density distribution pattern of SERT (Laruelle et al., 1988). […] Data were analyzed with a two-compartment model, using the metabolite-corrected arterial time-activity curve as input function. This analysis provided the regional distribution volumes (VT, mL/g).
# The nonspecific distribution volume, measured as the distribution volume of the cerebellum (a region with negligible SERT density) was in a similar range for all tracers (10 to 30 mL/g, Table 16).
# The specific to nonspecific partition coefficient, V3″, was calculated as the ratio of VT in the region of interest (ROI) to cerebellum VT minus one. V3″ provides a measure related to receptor parameters as follows: […]
structure (smiles),measurement,setting,value
CN(C)Cc1ccccc1Sc1ccc([123I])cc1N [[^123I]ADAM],VT CER measured with SPECT,[1],2.25 ± 0.46 mL/g
same,Target to background ratio in vivo compared to [^123I]IDAM,SERT [2],four times higher
"CN(C)Cc1ccccc1Sc1ccc(C[18F])cc1N [[^18F]AFM, [^18F]2-[2-(Dimethylaminomethyl)phenylthio]-5-fluoromethylphenylamine]",% ID/g Blood,[3]; 10 min post-injection,0.37 ± 0.04 % ID/g
same,% ID/g Cerebellum,[3]; 10 min post-injection,0.33 ± 0.04 % ID/g
same,% ID/g Frontal Ctx.,[3]; 10 min post-injection,0.82 ± 0.14 % ID/g
same,% ID/g Hippocamp.,[3]; 10 min post-injection,0.51 ± 0.07 % ID/g
same,% ID/g Hypothal.,[3]; 10 min post-injection,0.70 ± 0.08 % ID/g
same,% ID/g Striatum,[3]; 10 min post-injection,0.69 ± 0.15 % ID/g
same,% ID/g Thalamus,[3]; 10 min post-injection,0.72 ± 0.13 % ID/g
same,% ID/g Blood,[3]; 30 min post-injection,0.28 ± 0.02 % ID/g
same,% ID/g Cerebellum,[3]; 30 min post-injection,0.23 ± 0.03 % ID/g
same,% ID/g Frontal Ctx.,[3]; 30 min post-injection,0.99 ± 0.20 % ID/g
same,% ID/g Hippocamp.,[3]; 30 min post-injection,0.64 ± 0.12 % ID/g
same,% ID/g Hypothal.,[3]; 30 min post-injection,0.82 ± 0.16 % ID/g
same,% ID/g Striatum,[3]; 30 min post-injection,0.83 ± 0.12 % ID/g
same,% ID/g Thalamus,[3]; 30 min post-injection,0.88 ± 0.06 % ID/g
same,% ID/g Blood,[3]; 60 min post-injection,0.10 ± 0.04 % ID/g
same,% ID/g Cerebellum,[3]; 60 min post-injection,0.13 ± 0.02 % ID/g
same,% ID/g Frontal Ctx.,[3]; 60 min post-injection,0.71 ± 0.18 % ID/g
same,% ID/g Hippocamp.,[3]; 60 min post-injection,0.45 ± 0.09 % ID/g
same,% ID/g Hypothal.,[3]; 60 min post-injection,0.71 ± 0.14 % ID/g
same,% ID/g Striatum,[3]; 60 min post-injection,0.57 ± 0.12 % ID/g
same,% ID/g Thalamus,[3]; 60 min post-injection,0.67 ± 0.15 % ID/g
same,% ID/g Blood,[3]; 90 min post-injection,0.08 ± 0.03 % ID/g
same,% ID/g Cerebellum,[3]; 90 min post-injection,0.08 ± 0.01 % ID/g
same,% ID/g Frontal Ctx.,[3]; 90 min post-injection,0.52 ± 0.19 % ID/g
same,% ID/g Hippocamp.,[3]; 90 min post-injection,0.36 ± 0.12 % ID/g
same,% ID/g Hypothal.,[3]; 90 min post-injection,0.58 ± 0.13 % ID/g
same,% ID/g Striatum,[3]; 90 min post-injection,0.45 ± 0.17 % ID/g
same,% ID/g Thalamus,[3]; 90 min post-injection,0.50 ± 0.15 % ID/g
same,% ID/g Blood,[3]; 120 min post-injection,0.04 ± 0.00 % ID/g
same,% ID/g Cerebellum,[3]; 120 min post-injection,0.07 ± 0.02 % ID/g
same,% ID/g Frontal Ctx.,[3]; 120 min post-injection,0.38 ± 0.09 % ID/g
same,% ID/g Hippocamp.,[3]; 120 min post-injection,0.28 ± 0.05 % ID/g
same,% ID/g Hypothal.,[3]; 120 min post-injection,0.55 ± 0.08 % ID/g
same,% ID/g Striatum,[3]; 120 min post-injection,0.42 ± 0.10 % ID/g
same,% ID/g Thalamus,[3]; 120 min post-injection,0.56 ± 0.10 % ID/g
same,Clearance,[4],40 ± 1 L/h
same,Thalamus V3″,SERT [5],2.27
same,Clearance of the parent compound,[6],54 L/h
same,Percent plasma activity corresponding to the parent compound,[6]; 2 minutes,63.5%
same,Percent plasma activity corresponding to the parent compound,[6]; 4 minutes,40.0%
same,Percent plasma activity corresponding to the parent compound,[6]; 12 minutes,21.3%
same,Percent plasma activity corresponding to the parent compound,[6]; 30 minutes,8.7%
same,Percent plasma activity corresponding to the parent compound,[6]; 60 minutes,5.3%
same,Percent plasma activity corresponding to the parent compound,[6]; 90 minutes,4.6%
same,Cerebellum V (nonspecific distribution volume),SERT [7],23 ± 6 mL/g

# Source: patent US20110097274A1, “Carbon-11 and fluorine-18 labeled radioligands for positron emission tomography (PET) imaging for the brain serotonin transporters” (priority 2002, published 2011)
